# Measurements published in paper PMC6301270 (MedChemComm, 2018).
# Test system: T.b. brucei (strain 427) bloodstream form parasites
# Experiment: T.b. brucei single concentration screen (10 μM)
# Details: Trypanosoma brucei, read-out: T.b.brucei % viability (10 µM)
row,SMILES,viability at 10 µM
1,"CNCCC(Oc1ccc(C(F)(F)F)cc1)c1ccccc1 (centres unmarked) [Compound 33, CNCCC(Oc1ccc(cc1)C(F)(F)F)c2ccccc2]",2.4%
2,"CN1CCCC1CCO[C@](C)(c1ccccc1)c1ccc(Cl)cc1 (some centres unmarked) [Compound 62, ClC1=CC=C([C@@](C)(C2=CC=CC=C2)OCCC3N(C)CCC3)C=C1]",2%
3,"COc1cccc(-n2nnnc2S(C)(=O)=O)c1 [Compound 63, COc1cccc(c1)n2nnnc2S(=O)(=O)C]",103%
4,"CC(C)(C)c1cnc(NC(=O)c2ccccc2O)s1 [Compound 64, CC(C)(C)c1cnc(NC(=O)c2ccccc2O)s1]",77%
5,"Nc1nc2cc(-c3cncc(Oc4ccc(F)cc4)c3)ccc2[nH]1 [Compound 65, Nc1nc2ccc(cc2[nH]1)c3cncc(Oc4ccc(F)cc4)c3]",14%
6,"O=C(Nc1ccc(N2CCNCC2)cc1)c1ccn2ncc(-c3cccc(Cl)c3)c2n1 [Compound 67, Clc1cccc(c1)c2cnn3ccc(nc23)C(=O)Nc4ccc(cc4)N5CCNCC5]",1%
7,"O=C(NCCc1ccccc1)c1cc(-c2cccnc2)cnc1NCC1CC1 [Compound 68, O=C(NCCc1ccccc1)c2cc(cnc2NCC3CC3)c4cccnc4]",79%
8,"Cc1[nH]c2ccccc2c1C(c1cccs1)N1CCN(C)CC1 (centres unmarked) [Compound 69, CN1CCN(CC1)C(c2cccs2)c3c(C)[nH]c4ccccc34]",29%
9,"O=S(=O)(c1ccc(Cl)cc1)N1CCN(C(=S)NCc2ccco2)CC1 [MMV000858, Clc1ccc(cc1)S(=O)(=O)N2CCN(CC2)C(=S)NCc3occc3]",97%
10,"COc1cccc2c(C)nc(N=C(N)N)nc12 [MMV000907, COc1cccc2c(C)nc(N=C(N)N)nc12]",79%
11,"CCCS(=O)(=O)N1CCC(CO)(Cc2ccccc2C(F)(F)F)CC1 [MMV001059, CCCS(=O)(=O)N1CCC(CO)(Cc2ccccc2C(F)(F)F)CC1]",87%
12,"COC(=O)C1=C(C)NC(C)=C(C(=O)OC(C)C)C1c1cccc2nonc12 (centres unmarked) [MMV001493, COC(=O)C1=C(C)NC(=C(C1c2cccc3nonc23)C(=O)OC(C)C)C]",97%
13,"CN1CCCN(C(c2ccccc2)c2ccc(Cl)cc2)CC1 (centres unmarked) [MMV004168, CN1CCCN(CC1)C(c2ccccc2)c3ccc(Cl)cc3]",55%
14,"O=C1Nc2ccc(Br)cc2C12NCCc1c2[nH]c2ccccc12 (centres unmarked) [MMV006239, Brc1ccc2NC(=O)C3(NCCc4c3[nH]c5ccccc45)c2c1]",106%
15,"Cc1ccc2[nH]c3c(NCCN(C)C)ncnc3c2c1 [MMV006372, CN(C)CCNc1ncnc2c3cc(C)ccc3[nH]c12]",86%
16,"COc1cc2ncnc(NC3CCN(Cc4ccccc4)CC3)c2cc1OC [MMV006741, COc1cc2ncnc(NC3CCN(Cc4ccccc4)CC3)c2cc1OC]",103%
17,"Cc1cc(Cl)c(S(=O)(=O)N2CCCC2)cc1OCC(=O)NC1CCCCC1 [MMV006833, Cc1cc(Cl)c(cc1OCC(=O)NC2CCCCC2)S(=O)(=O)N3CCCC3]",98%
18,"Cc1cc(NC(=O)c2ccc(S(=O)(=O)N(Cc3ccccc3)C(C)C)cc2)no1 [MMV007133, CC(C)N(Cc1ccccc1)S(=O)(=O)c2ccc(cc2)C(=O)Nc3cc(C)on3]",98%
19,"COc1cc(OC)cc(C(=O)NCC2Cc3cc(Cl)cc(-c4ccncc4)c3O2)c1 (centres unmarked) [MMV007471, COc1cc(OC)cc(c1)C(=O)NCC2Cc3cc(Cl)cc(c3O2)c4ccncc4]",74%

row,SMILES,viability at 10 µM
1,"Cc1cc(C)n(-c2ccc(NC(=O)C3CCN(Cc4cnc(C)s4)CC3)cc2)n1 [MMV007625, Cc1cc(C)n(n1)c2ccc(NC(=O)C3CCN(Cc4cnc(C)s4)CC3)cc2]",65%
2,"CCOc1ccc(-c2nc(NC(=O)CS(=O)(=O)c3ccccc3)sc2C)cc1 [MMV007638, CCOc1ccc(cc1)c2nc(NC(=O)CS(=O)(=O)c3ccccc3)sc2C]",73%
3,"O=C(NC1CC1)c1ccc(CSCc2ccccc2Cl)o1 [MMV007803, Clc1ccccc1CSCc2oc(cc2)C(=O)NC3CC3]",101%
4,"Nc1ccc(C(=O)Nc2ccc(-c3nc4ccccc4o3)cc2)cc1 [MMV007920, Nc1ccc(cc1)C(=O)Nc2ccc(cc2)c3oc4ccccc4n3]",83%
5,"COc1ccc(CN2CCOc3ccc(C(C)(O)CN(C)C)cc3C2)cc1C (centres unmarked) [MMV008439, COc1ccc(CN2CCOc3ccc(cc3C2)C(C)(O)CN(C)C)cc1C]",94%
6,"Cc1cc(C(=O)Nc2cnn(Cc3ccc(Cl)cc3Cl)c2)no1 [MMV009054, Cc1onc(c1)C(=O)Nc2cnn(Cc3ccc(Cl)cc3Cl)c2]",89%
7,"O=C(C1CCN(c2nnnn2-c2ccccc2)CC1)N1CCc2ccccc2C1 [MMV009135, O=C(C1CCN(CC1)c2nnnn2c3ccccc3)N4CCc5ccccc5C4]",94%
8,"COc1ccc(-c2cnc3ccc(NCc4ccc(S(N)(=O)=O)cc4)nn23)cn1 [MMV010545, COc1ccc(cn1)c2cnc3ccc(NCc4ccc(cc4)S(=O)(=O)N)nn23]",97%
9,"c1csc(-c2cnc3sc(NCC4CCOCC4)nn23)c1 [MMV010764, C(Nc1nn2c(cnc2s1)c3cccs3)C4CCOCC4]",94%
10,"Cc1cc(Nc2ccc(C(F)(F)F)cc2)n2ccnc2n1 [MMV011229, CC1=NC2=NC=CN2C(NC3=CC=C(C(F)(F)F)C=C3)=C1]",89%
11,"COc1ccc(CCN2CCC(NCc3cccc(N(C)C)c3)CC2)cc1 [MMV011511, COc1ccc(CCN2CCC(CC2)NCc3cccc(c3)N(C)C)cc1]",66%
12,"NCC(=O)N1CCn2c(nc(-c3ccccc3)c2Nc2ccc3c(c2)OCO3)C1 [MMV011691, NCC(=O)N1CCn2c(C1)nc(c2Nc3ccc4OCOc4c3)c5ccccc5]",120%
13,"FC(F)(F)c1cnc(Sc2nnc(-c3ccncc3)o2)c(Cl)c1 [MMV011765, FC(F)(F)c1cnc(Sc2oc(nn2)c3ccncc3)c(Cl)c1]",85%
14,"Cc1ccc(NC(=O)c2nc[nH]c2C(=O)Nc2nc3ccccc3[nH]2)c(C)c1 [MMV011903, Cc1ccc(NC(=O)c2nc[nH]c2C(=O)Nc3nc4ccccc4[nH]3)c(C)c1]",10%
15,"Cc1nc2ccccn2c1C(=O)NCc1ccc(Cl)cc1 [MMV012074, Cc1nc2ccccn2c1C(=O)NCc3ccc(Cl)cc3]",102%
16,"Cc1cc(Nc2ccncc2)n2nc(C)c(-c3ccccc3Cl)c2n1 [MMV016136, Cc1cc(Nc2ccncc2)n3nc(C)c(c4ccccc4Cl)c3n1]",113%
17,"Cc1ccc(-c2cc(C(=O)Nc3cccnc3)c3cc(Br)ccc3n2)cc1 [MMV016838, Cc1ccc(cc1)-c1cc(c2cc(ccc2n1)Br)C(=O)Nc1cccnc1]",87%
18,"Cc1cc(C)n2nc(C(=O)Nc3cc(C(F)(F)F)ccc3N3CCOCC3)nc2n1 [MMV019087, Cc1cc(C)n2nc(nc2n1)C(=O)Nc3cc(ccc3N4CCOCC4)C(F)(F)F]",74%
19,"COc1ccc(C2CC(c3cccs3)=NN2C(=O)c2ccco2)cc1OC (centres unmarked) [MMV019234, COc1ccc(cc1OC)C2CC(=NN2C(=O)c3occc3)c4cccs4]",107%

row,SMILES,viability at 10 µM
1,"CCC(NC(=O)c1ccccc1NC(=O)c1ccc(C)cc1)C(=O)OC (centres unmarked) [MMV019551, CCC(NC(=O)c1ccccc1NC(=O)c2ccc(C)cc2)C(=O)OC]",97%
2,"CCN(CC)S(=O)(=O)c1ccc(Cl)c(C(=O)Nc2ccc3nc(C)sc3c2)c1 [MMV019721, CCN(CC)S(=O)(=O)c1ccc(Cl)c(c1)C(=O)Nc2ccc3nc(C)sc3c2]",62%
3,"Cc1ccc(S(=O)(=O)N2CCN(C(=O)c3cc(-c4ccccc4)[nH]n3)CC2)cc1 [MMV019742, Cc1ccc(cc1)S(=O)(=O)N2CCN(CC2)C(=O)c3cc([nH]n3)c4ccccc4]",96%
4,"CCOc1ccccc1C(=O)Nc1cccc(-c2nc3ncccn3c2C)c1 [MMV019790, CCOc1ccccc1C(=O)Nc2cccc(c2)c3nc4ncccn4c3C]",103%
5,"Cc1ccc2cc(C3NC(=O)c4ccccc4N3)c(Cl)nc2c1 (centres unmarked) [MMV019807, Cc1ccc2cc(C3NC(=O)c4ccccc4N3)c(Cl)nc2c1]",113%
6,"O=C(Nc1ccnc(-c2cccnc2)n1)c1cc(C(F)(F)F)cc(C(F)(F)F)c1 [MMV019838, FC(F)(F)c1cc(cc(c1)C(F)(F)F)C(=O)Nc2ccnc(n2)c3cccnc3]",106%
7,"Cc1nn(C)cc1C(C)Nc1nncc(-c2ccc(C(F)(F)F)cc2)n1 (centres unmarked) [MMV019993, CC(Nc1nncc(n1)c2ccc(cc2)C(F)(F)F)c3cn(C)nc3C]",104%
8,"COc1cccc(CC(=O)N2CCC(n3c(C)nc4ccc(F)cc43)CC2)c1 [MMV020081, COc1cccc(CC(=O)N2CCC(CC2)n3c(C)nc4ccc(F)cc34)c1]",99%
9,"CC1CC1C(=O)NC1CCN(CC2(c3ccccc3)CCCCC2)CC1 (centres unmarked) [MMV020120, CC1CC1C(=O)NC2CCN(CC3(CCCCC3)c4ccccc4)CC2]",109%
10,"CNC(=O)c1cc(S(=O)(=O)N2CCN(c3ccccn3)CC2)cs1 [MMV020136, CNC(=O)c1cc(cs1)S(=O)(=O)N2CCN(CC2)c3ccccn3]",97%
11,"Cc1cc(C(=O)Nc2ccc(-c3ccccc3)cc2)no1 [MMV020152, Cc1onc(c1)C(=O)Nc2ccc(cc2)c3ccccc3]",85%
12,"CC(C)NCC(=O)Nc1cccc(C(=O)Nc2cccc(C(F)(F)F)c2)c1 [MMV020165, CC(C)NCC(=O)Nc1cccc(c1)C(=O)Nc2cccc(c2)C(F)(F)F]",107%
13,"Cc1ccc(NC(=O)c2cc(S(=O)(=O)NC(C)(C)C)ccc2C)nc1 [MMV020289, Cc1ccc(NC(=O)c2cc(ccc2C)S(=O)(=O)NC(C)(C)C)nc1]",93%
14,"CC(C(=O)N1CCCC1)N1CCN(S(=O)(=O)c2ccc(C(C)(C)C)cc2)CC1 (centres unmarked) [MMV020291, CC(N1CCN(CC1)S(=O)(=O)c2ccc(cc2)C(C)(C)C)C(=O)N3CCCC3]",95%
15,"Cc1nnc(NC(=O)c2cn(-c3ccccc3)nc2-c2ccccc2C)o1 [MMV020320, Cc1oc(NC(=O)c2cn(nc2c3ccccc3C)c4ccccc4)nn1]",46%
16,"COc1ccccc1C(C)NCC(=O)Nc1cc(C(F)(F)F)ccc1Cl (centres unmarked) [MMV020321, COc1ccccc1C(C)NCC(=O)Nc2cc(ccc2Cl)C(F)(F)F]",106%
17,"CC1CCCN(C(=O)C(C)Nc2cc(Cl)ccc2N2CCOCC2)C1 (centres unmarked) [MMV020388, CC(Nc1cc(Cl)ccc1N2CCOCC2)C(=O)N3CCCC(C)C3]",95%
18,"Cc1ccc(Oc2ccc(NC(=O)CNc3ccccc3N3CCCC3=O)cc2)cc1 [MMV020512, Cc1ccc(Oc2ccc(NC(=O)CNc3ccccc3N4CCCC4=O)cc2)cc1]",95%
